Reference: ChEMBL document CHEMBL1201862, “PubChem BioAssay data set” (2004)
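How tested: cells in 96-well plates exposed to compound for 48 hours at five concentrations. GI50: concentration for 50% inhibition of growth.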 Activity calls are given as the source filed them. Rule as the data show it: active = GI50 up to about 1.1 µM and inactive = higher.

Tests used:
Experiment in all cases: NCI-60 cell line screen, 48 h
SK-MEL-5 = system: SK-MEL-5
NCI-H460 = system: NCI-H460
HOP-92 = system: HOP-92
NCI-H226 = system: NCI-H226
LOX IMVI = system: LOX IMVI
RXF 393 = system: RXF 393
EKVX = system: EKVX
HCT-15 = system: HCT-15
KM12 = system: KM12
A549 = system: A549
RPMI-8226 = system: RPMI-8226
UO-31 = system: UO-31
NCI/ADR-RES = system: NCI/ADR-RES
NCI-H522 = system: NCI-H522
SNB-75 = system: SNB-75
PC-3 = system: PC-3
Hs-578T = system: Hs-578T
MDA-MB-435 = system: MDA-MB-435
MDA-MB-231 = system: MDA-MB-231
BT-549 = system: BT-549

Compound	GI50 (SK-MEL-5)	GI50 (NCI-H460)	GI50 (HOP-92)	GI50 (NCI-H226)	GI50 (LOX IMVI)	GI50 (RXF 393)	GI50 (EKVX)	GI50 (HCT-15) [µM]	GI50 (KM12)	GI50 (A549)	GI50 (RPMI-8226)	GI50 (UO-31)	GI50 (NCI/ADR-RES)	GI50 (NCI-H522)	GI50 (SNB-75)	GI50 (PC-3)	GI50 (Hs-578T)	GI50 (MDA-MB-435)	GI50 (MDA-MB-231)	GI50 (BT-549)
CCC(C)C1NC(=O)CNC(=O)C2Cc3c([nH]c4cc(O)ccc34)[S+]([O-])CC(NC(=O)CNC1=O)C(=O)NC(CC(=O)O)C(=O)N1CC(O)CC1C(=O)NC(C(C)C(O)CO)C(=O)N2 (stereo not given)	2.43 µM (inactive)	2.11 µM (inactive)	1.68 µM (inactive)	1.6 µM (inactive)	2.38 µM (inactive)	0.579 µM (active)	1.98 µM (inactive)	10.4	6.46 µM (inactive)	4.58 µM (inactive)	20.3 µM (inactive)	1.55 µM (inactive)	3.97 µM (inactive)	0.776 µM (active)	0.918 µM (active)	–	–	–	–	–
COc1ccc(CC(N)=O)cc1OC	> 1250 µM (inactive)	> 1250 µM (inactive)	753 µM (inactive)	> 1250 µM (inactive)	> 1250 µM (inactive)	> 1250 µM (inactive)	> 1250 µM (inactive)	1090	> 1250 µM (inactive)	> 1250 µM (inactive)	> 1250 µM (inactive)	> 1250 µM (inactive)	> 1250 µM (inactive)	> 1250 µM (inactive)	769 µM (inactive)	–	–	–	–	–
[N-]=[N+]=NI1OC(=O)c2ccccc21	–	–	44.9 µM (inactive)	> 100 µM (inactive)	90.2 µM (inactive)	32.2 µM (inactive)	> 100 µM (inactive)	50.7	> 100 µM (inactive)	> 100 µM (inactive)	24 µM (inactive)	> 100 µM (inactive)	> 100 µM (inactive)	17.3 µM (inactive)	> 100 µM (inactive)	> 100 µM (inactive)	> 100 µM (inactive)	67.3 µM (inactive)	> 100 µM (inactive)	–
O=C(OCC(OC(=O)c1ccccc1)C1CC(C2(O)CCCCC2)C(=O)O1)c1ccccc1 (stereo not given)	> 25 µM (inactive)	9.18 µM (inactive)	–	> 25 µM (inactive)	> 25 µM (inactive)	> 25 µM (inactive)	> 25 µM (inactive)	> 25	11 µM (inactive)	> 25 µM (inactive)	> 25 µM (inactive)	0.0181 µM (active)	> 25 µM (inactive)	> 25 µM (inactive)	15.7 µM (inactive)	> 25 µM (inactive)	–	> 25 µM (inactive)	> 25 µM (inactive)	0.478 µM (active)
COc1ccc(/C=C(\C#N)c2ccccn2)cc1OC	25.1 µM (inactive)	34.3 µM (inactive)	17 µM (inactive)	27.2 µM (inactive)	–	23.7 µM (inactive)	5.4 µM (inactive)	32.2	53.1 µM (inactive)	41.5 µM (inactive)	45.7 µM (inactive)	29.8 µM (inactive)	20.4 µM (inactive)	39.8 µM (inactive)	21.3 µM (inactive)	22.8 µM (inactive)	–	–	–	18.6 µM (inactive)
COC(=O)/C=C/C1(O)C=CC(=O)C=C1	4.65 µM (inactive)	16.3 µM (inactive)	3.66 µM (inactive)	19.6 µM (inactive)	2.07 µM (inactive)	3.12 µM (inactive)	3.61 µM (inactive)	2.66	2.32 µM (inactive)	8.3 µM (inactive)	2.45 µM (inactive)	1.7 µM (inactive)	3.5 µM (inactive)	0.338 µM (active)	9.86 µM (inactive)	2.34 µM (inactive)	–	5.13 µM (inactive)	2.95 µM (inactive)	5.27 µM (inactive)
CCCNC(=S)N/C=C1/C(=O)C=C(C)OC1=O	> 100 µM (inactive)	> 100 µM (inactive)	> 100 µM (inactive)	> 100 µM (inactive)	> 100 µM (inactive)	–	> 100 µM (inactive)	> 100	> 100 µM (inactive)	> 100 µM (inactive)	–	> 100 µM (inactive)	> 100 µM (inactive)	–	> 100 µM (inactive)	> 100 µM (inactive)	–	> 100 µM (inactive)	> 100 µM (inactive)	> 100 µM (inactive)
CN(CCO)/N=N/c1n[nH]cc1C(N)=O	> 100 µM (inactive)	> 100 µM (inactive)	> 100 µM (inactive)	> 100 µM (inactive)	> 100 µM (inactive)	> 100 µM (inactive)	> 100 µM (inactive)	> 100	> 100 µM (inactive)	> 100 µM (inactive)	> 100 µM (inactive)	> 100 µM (inactive)	> 100 µM (inactive)	> 100 µM (inactive)	> 100 µM (inactive)	–	–	–	–	–
CC1(c2cccc(C3CCC4(C=CC3=O)OCCO4)c2)OCCO1 (stereo not given)	14.6 µM (inactive)	16.4 µM (inactive)	5.81 µM (inactive)	25.9 µM (inactive)	11.8 µM (inactive)	5.9 µM (inactive)	19.6 µM (inactive)	5.36	17.4 µM (inactive)	18.5 µM (inactive)	4.76 µM (inactive)	6.64 µM (inactive)	14.5 µM (inactive)	1.43 µM (inactive)	16.3 µM (inactive)	17.2 µM (inactive)	15.3 µM (inactive)	13.4 µM (inactive)	13.2 µM (inactive)	–
O=[N+]([O-])c1cccc2c1[nH]c1c(-c3ccccc3)nccc12	1.53 µM (inactive)	2.33 µM (inactive)	0.622 µM (active)	1.58 µM (inactive)	2.73 µM (inactive)	2.54 µM (inactive)	3.21 µM (inactive)	2.61	3.03 µM (inactive)	2.67 µM (inactive)	1.46 µM (inactive)	1.11 µM (active)	1.63 µM (inactive)	0.849 µM (active)	2.4 µM (inactive)	–	–	–	–	–
CN(C)CCNC(=O)c1cccc2[nH]c(-c3ccccn3)nc12	21.7 µM (inactive)	20.8 µM (inactive)	19.6 µM (inactive)	18.5 µM (inactive)	32.5 µM (inactive)	51.2 µM (inactive)	41.4 µM (inactive)	37.2	41.6 µM (inactive)	36.2 µM (inactive)	21.7 µM (inactive)	16.8 µM (inactive)	26.1 µM (inactive)	25.6 µM (inactive)	21.2 µM (inactive)	–	–	–	–	–
OCC#CCNCl	> 100 µM (inactive)	> 100 µM (inactive)	> 100 µM (inactive)	> 100 µM (inactive)	> 100 µM (inactive)	> 100 µM (inactive)	> 100 µM (inactive)	> 100	> 100 µM (inactive)	> 100 µM (inactive)	> 100 µM (inactive)	> 100 µM (inactive)	> 100 µM (inactive)	> 100 µM (inactive)	> 100 µM (inactive)	–	–	–	–	–
CN(C)C(=S)/N=c1\sn(C)/c(=N\C(=S)N(C)C)n1C	29.1 µM (inactive)	50.6 µM (inactive)	> 100 µM (inactive)	> 100 µM (inactive)	45.1 µM (inactive)	> 100 µM (inactive)	> 100 µM (inactive)	> 100	86.1 µM (inactive)	82.8 µM (inactive)	> 100 µM (inactive)	> 100 µM (inactive)	–	29.4 µM (inactive)	> 100 µM (inactive)	–	–	–	–	–
CCOC(=O)[C@H](Cc1ccc(O)cc1)/N=C1/[C@H]2CCC[C@]1(O)[C@@](C)([N+](=O)[O-])C2	> 100 µM (inactive)	> 100 µM (inactive)	> 100 µM (inactive)	> 100 µM (inactive)	> 100 µM (inactive)	> 100 µM (inactive)	> 100 µM (inactive)	> 100	> 100 µM (inactive)	> 100 µM (inactive)	> 100 µM (inactive)	> 100 µM (inactive)	> 100 µM (inactive)	63.7 µM (inactive)	–	–	> 100 µM (inactive)	> 100 µM (inactive)	–	> 100 µM (inactive)
O=C1C2CN(Cc3ccccc3)CC1CN(CC1CC1)C2	> 100 µM (inactive)	> 100 µM (inactive)	> 100 µM (inactive)	> 100 µM (inactive)	> 100 µM (inactive)	> 100 µM (inactive)	> 100 µM (inactive)	> 100	> 100 µM (inactive)	> 100 µM (inactive)	> 100 µM (inactive)	> 100 µM (inactive)	–	> 100 µM (inactive)	> 100 µM (inactive)	–	–	–	–	–
COc1ccccc1NCc1cccc2c(=O)c3ccc(Cl)cc3oc12	> 100 µM (inactive)	–	25.7 µM (inactive)	> 100 µM (inactive)	> 100 µM (inactive)	–	> 100 µM (inactive)	> 100	40.1 µM (inactive)	78.3 µM (inactive)	39.3 µM (inactive)	95.9 µM (inactive)	> 100 µM (inactive)	> 100 µM (inactive)	28 µM (inactive)	58.7 µM (inactive)	–	65 µM (inactive)	> 100 µM (inactive)	> 100 µM (inactive)
CCCCCCCCC#CCCCCCCC(F)C(=O)O (stereo not given)	> 100 µM (inactive)	> 100 µM (inactive)	> 100 µM (inactive)	> 100 µM (inactive)	> 100 µM (inactive)	> 100 µM (inactive)	43.1 µM (inactive)	> 100	> 100 µM (inactive)	> 100 µM (inactive)	29.8 µM (inactive)	> 100 µM (inactive)	> 100 µM (inactive)	> 100 µM (inactive)	> 100 µM (inactive)	> 100 µM (inactive)	> 100 µM (inactive)	> 100 µM (inactive)	–	–
